ChEMBL document CHEMBL5500348, “Novel 6-alkyl-bridged 4-arylalkylpiperazin-1-yl derivatives of azepino[4,3-b]indol-1(2H)-one as potent BChE-selective inhibitors showing protective effects against neurodegenerative insults” (Eur J Med Chem, 2024)
Values after ≈ are worked out from the molar mass of the structure shown. Active and inactive are the calls of the source. The rule behind the calls is not given here.

How the values were obtained:
[1] = biological target: Amyloid-beta precursor protein (Homo sapiens) (UniProt P05067); experiment: Inhibition of amyloid beta (unknown origin) aggregation at 100 uM relative to control
Sequence of Amyloid-beta precursor protein (Homo sapiens) (P05067 whole entry): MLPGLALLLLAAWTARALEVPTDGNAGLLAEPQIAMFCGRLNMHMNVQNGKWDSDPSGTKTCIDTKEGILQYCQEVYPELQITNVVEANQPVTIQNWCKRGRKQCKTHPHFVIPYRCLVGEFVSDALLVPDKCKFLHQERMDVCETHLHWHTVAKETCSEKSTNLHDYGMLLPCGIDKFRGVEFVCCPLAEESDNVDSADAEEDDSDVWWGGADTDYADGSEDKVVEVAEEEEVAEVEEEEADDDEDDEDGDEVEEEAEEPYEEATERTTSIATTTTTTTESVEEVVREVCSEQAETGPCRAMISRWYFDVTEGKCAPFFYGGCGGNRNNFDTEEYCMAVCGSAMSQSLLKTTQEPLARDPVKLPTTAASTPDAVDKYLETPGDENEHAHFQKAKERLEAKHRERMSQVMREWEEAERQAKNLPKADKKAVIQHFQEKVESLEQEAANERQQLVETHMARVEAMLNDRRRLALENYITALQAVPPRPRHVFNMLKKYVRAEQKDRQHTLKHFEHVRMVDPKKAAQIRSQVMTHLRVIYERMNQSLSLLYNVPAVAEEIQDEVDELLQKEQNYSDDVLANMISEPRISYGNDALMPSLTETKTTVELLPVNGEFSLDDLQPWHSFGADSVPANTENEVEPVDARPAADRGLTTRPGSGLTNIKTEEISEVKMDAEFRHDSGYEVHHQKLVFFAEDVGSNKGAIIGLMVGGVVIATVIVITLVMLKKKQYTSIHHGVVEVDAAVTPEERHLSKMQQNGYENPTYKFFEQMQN

[2] = biological target: Acetylcholinesterase (Homo sapiens) (UniProt P22303); experiment: Inhibition of AChE (unknown origin) at 10 uM relative to control
Sequence of Acetylcholinesterase (Homo sapiens) (P22303 whole entry): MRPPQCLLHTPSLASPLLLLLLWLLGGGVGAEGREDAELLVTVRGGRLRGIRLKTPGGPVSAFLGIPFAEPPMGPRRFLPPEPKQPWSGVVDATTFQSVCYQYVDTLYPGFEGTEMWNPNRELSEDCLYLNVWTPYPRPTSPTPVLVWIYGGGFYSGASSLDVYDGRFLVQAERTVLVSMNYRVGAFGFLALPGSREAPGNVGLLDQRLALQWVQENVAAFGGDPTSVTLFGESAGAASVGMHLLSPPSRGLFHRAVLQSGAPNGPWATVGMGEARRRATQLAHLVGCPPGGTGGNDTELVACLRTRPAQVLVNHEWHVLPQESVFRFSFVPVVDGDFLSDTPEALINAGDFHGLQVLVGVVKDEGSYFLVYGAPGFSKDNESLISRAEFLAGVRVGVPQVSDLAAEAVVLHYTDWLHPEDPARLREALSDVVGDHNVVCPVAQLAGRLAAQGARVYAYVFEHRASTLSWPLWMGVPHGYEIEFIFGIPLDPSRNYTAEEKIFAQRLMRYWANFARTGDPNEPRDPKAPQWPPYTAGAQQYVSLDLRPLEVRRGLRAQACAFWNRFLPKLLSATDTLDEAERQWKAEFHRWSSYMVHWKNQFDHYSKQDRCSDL

Cholinesterase [3] = biological target: T1, Cholinesterase (Homo sapiens, UniProt P06276); experiment: Inhibition of BChE (unknown origin) at 10 uM relative to control
T1 sequence (P06276 whole entry): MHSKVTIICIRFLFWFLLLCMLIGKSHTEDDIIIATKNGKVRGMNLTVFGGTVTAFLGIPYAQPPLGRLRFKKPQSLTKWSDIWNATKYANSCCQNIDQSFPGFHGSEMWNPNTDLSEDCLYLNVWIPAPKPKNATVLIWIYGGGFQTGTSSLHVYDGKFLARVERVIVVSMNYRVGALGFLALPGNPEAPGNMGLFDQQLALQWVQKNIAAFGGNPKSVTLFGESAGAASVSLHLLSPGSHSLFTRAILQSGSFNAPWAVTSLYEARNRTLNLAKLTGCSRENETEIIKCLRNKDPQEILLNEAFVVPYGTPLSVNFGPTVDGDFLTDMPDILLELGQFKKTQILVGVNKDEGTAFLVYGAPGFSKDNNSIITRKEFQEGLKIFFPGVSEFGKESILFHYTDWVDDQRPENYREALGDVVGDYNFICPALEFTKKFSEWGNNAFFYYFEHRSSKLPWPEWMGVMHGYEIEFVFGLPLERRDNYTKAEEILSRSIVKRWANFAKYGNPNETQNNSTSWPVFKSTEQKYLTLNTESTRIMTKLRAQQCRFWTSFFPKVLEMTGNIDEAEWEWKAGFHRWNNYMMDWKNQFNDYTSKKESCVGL

Acetylcholinesterase = Acetylcholinesterase (Electrophorus electricus, UniProt O42275); experiment: Inhibition of electric eel AChE using acetylthiocholine iodide as substrate preincubated for 20 mins followed by substrate addition and measured after 10 mins by DTNB-reagent based Ellman's method
Sequence of Acetylcholinesterase (O42275 whole entry): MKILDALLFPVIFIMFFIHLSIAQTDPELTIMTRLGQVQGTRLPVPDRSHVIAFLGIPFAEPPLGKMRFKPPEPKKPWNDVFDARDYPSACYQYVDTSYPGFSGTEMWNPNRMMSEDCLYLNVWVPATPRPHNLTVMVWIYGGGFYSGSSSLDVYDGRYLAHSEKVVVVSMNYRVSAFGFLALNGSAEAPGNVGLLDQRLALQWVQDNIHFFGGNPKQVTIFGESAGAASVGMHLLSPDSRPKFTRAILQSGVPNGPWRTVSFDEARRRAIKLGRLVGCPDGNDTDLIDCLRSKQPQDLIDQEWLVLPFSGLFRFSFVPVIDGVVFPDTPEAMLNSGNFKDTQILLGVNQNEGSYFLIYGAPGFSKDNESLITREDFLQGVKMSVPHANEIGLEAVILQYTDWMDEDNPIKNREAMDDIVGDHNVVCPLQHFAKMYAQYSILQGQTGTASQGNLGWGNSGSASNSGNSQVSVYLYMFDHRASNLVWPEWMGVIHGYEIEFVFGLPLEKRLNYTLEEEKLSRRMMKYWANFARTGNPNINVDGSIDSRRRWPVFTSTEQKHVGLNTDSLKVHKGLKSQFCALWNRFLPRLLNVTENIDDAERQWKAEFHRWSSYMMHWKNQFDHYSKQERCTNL

Cholinesterase [4] = biological target: T2, Cholinesterase (Equus caballus, UniProt P81908); experiment: Inhibition of equine serum BuChE using butyrylthiocholine iodide as substrate preincubated for 20 mins followed by substrate addition and measured after 10 mins by DTNB based Ellman's method
T2 sequence (P81908 whole entry): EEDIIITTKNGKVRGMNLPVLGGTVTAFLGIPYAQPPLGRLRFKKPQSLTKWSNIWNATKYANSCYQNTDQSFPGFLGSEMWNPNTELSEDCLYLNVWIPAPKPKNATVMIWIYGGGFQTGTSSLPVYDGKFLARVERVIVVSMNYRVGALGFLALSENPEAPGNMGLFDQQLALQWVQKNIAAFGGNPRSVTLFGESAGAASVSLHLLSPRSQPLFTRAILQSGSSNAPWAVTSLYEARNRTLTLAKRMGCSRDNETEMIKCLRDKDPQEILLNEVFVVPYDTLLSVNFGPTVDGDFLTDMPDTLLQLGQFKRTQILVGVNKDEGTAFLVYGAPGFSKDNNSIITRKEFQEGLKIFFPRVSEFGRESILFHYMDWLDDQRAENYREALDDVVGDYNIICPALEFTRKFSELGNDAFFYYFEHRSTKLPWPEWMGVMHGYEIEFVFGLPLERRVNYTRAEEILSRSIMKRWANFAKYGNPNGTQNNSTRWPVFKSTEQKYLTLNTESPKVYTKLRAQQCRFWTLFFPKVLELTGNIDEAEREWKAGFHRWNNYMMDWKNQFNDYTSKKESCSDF

Albumin = Albumin (Homo sapiens, UniProt P02768); experiment: Binding affinity to human serum albumin assessed as equilibrium dissociation constant by SPR analysis; type: ADME
Sequence of Albumin (P02768 whole entry): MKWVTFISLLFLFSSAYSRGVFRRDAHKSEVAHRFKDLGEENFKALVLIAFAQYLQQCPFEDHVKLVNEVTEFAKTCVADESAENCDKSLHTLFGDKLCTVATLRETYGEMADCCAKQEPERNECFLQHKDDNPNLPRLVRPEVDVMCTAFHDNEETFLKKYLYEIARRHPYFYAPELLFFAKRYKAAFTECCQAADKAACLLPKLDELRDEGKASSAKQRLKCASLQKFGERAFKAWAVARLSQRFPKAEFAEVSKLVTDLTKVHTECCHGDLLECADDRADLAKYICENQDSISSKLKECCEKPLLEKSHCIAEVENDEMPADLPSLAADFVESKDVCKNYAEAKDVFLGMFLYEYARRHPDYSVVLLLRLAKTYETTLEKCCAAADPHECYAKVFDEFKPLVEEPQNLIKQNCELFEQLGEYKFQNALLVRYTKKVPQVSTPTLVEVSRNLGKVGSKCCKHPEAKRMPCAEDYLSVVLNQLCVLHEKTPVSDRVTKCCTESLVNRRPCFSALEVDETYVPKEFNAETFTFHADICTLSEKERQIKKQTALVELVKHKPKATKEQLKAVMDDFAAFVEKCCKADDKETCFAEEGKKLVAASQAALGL

serum albumin [5] = biological target: T3, serum albumin (Homo sapiens, UniProt P02768); experiment: Binding affinity to human serum albumin assessed as dissociation rate constant (Koff) by SPR analysis; type: ADME; details: read-out: K
T3 sequence (P02768 whole entry): as above

serum albumin [6] = biological target: T3, serum albumin; experiment: Binding affinity to human serum albumin assessed as residence time by SPR analysis; type: ADME
[7] = biological target: Acetylcholinesterase (Electrophorus electricus) (UniProt O42275); experiment: Inhibition of electric eel AChE using acetylthiocholine iodide as substrate at 20 uM preincubated for 20 mins followed by substrate addition and measured after 10 mins by DTNB-reagent based Ellman's method relative to control; details: time 30.0 min
Sequence of Acetylcholinesterase (Electrophorus electricus) (O42275 24-633 limits assumed): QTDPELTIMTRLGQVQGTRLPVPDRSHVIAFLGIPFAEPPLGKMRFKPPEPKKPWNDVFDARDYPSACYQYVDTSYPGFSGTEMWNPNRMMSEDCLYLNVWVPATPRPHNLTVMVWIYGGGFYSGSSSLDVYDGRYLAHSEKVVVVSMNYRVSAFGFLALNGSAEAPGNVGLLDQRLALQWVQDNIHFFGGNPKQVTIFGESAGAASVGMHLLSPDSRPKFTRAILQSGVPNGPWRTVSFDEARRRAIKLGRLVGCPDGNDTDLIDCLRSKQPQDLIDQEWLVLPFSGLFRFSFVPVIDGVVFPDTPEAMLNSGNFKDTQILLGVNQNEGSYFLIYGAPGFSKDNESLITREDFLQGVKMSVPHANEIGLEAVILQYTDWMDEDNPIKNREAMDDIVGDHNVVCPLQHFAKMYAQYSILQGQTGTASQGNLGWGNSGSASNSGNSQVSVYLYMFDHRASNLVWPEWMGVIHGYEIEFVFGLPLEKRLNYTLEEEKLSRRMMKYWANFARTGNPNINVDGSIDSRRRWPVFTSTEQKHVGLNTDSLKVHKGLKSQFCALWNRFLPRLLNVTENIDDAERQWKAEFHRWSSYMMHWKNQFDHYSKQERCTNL

[8] = biological target: Amyloid-beta precursor protein (Homo sapiens) (UniProt P05067); experiment: Inhibition of self induced amyloid-beta (1 to 40) (unknown origin) aggregation at 100 uM incubated for 2 hrs by ThT fluorescence based spectrofluorimetric analysis relative to control
Cholinesterase [9] = biological target: T1, Cholinesterase; experiment: Inhibition of human BuChE using butyrylthiocholine iodide as substrate preincubated for 20 mins followed by substrate addition and measured after 10 mins by DTNB based Ellman's method
[10] = biological target: Acetylcholinesterase (Homo sapiens) (UniProt P22303); experiment: Inhibition of human AChE using acetylthiocholine iodide as substrate at 20 uM preincubated for 20 mins followed by substrate addition and measured after 10 mins by DTNB-reagent based Ellman's method relative to control; details: time 30.0 min
SH-SY5Y [11] = experiment: Cytoprotective activity against H2O2-induced oxidative stress in human SH-SY5Y cells assessed as increase in cell viability incubated for 24 hrs by MTT assay; type: functional, cell-based
[12] = Cytotoxicity against human SH-SY5Y cells assessed as reduction in cell viability incubated for 24 hrs by MTT assay; type: toxicity, cell-based
SH-SY5Y [13] = experiment: Protection against NMDA-induced cytotoxicity in human SH-SY5Y cells assessed as increase in cell viability at 1 uM incubated for 24 hrs by MTT assay; type: functional, cell-based
SH-SY5Y [14] = experiment: Protection against NMDA-induced cytotoxicity in human SH-SY5Y cells assessed as increase in cell viability at 5 to 20 uM incubated for 24 hrs by MTT assay; type: functional, cell-based; details: dose 5-20 µM
equine serum BuChE = experiment: Selectivity ratio of IC50 for cytotoxicity against human SH-SY5Y cells to IC50 for inhibition of equine serum BuChE using butyrylthiocholine iodide as substrate; type: toxicity, cell-based; details: probe butyrylthiocholine iodide, read-out: Ratio IC50
[15] = Antioxidant activity assessed as ROS scavenging activity relative to control; type: functional
[16] = Aqueous solubility of compound in phosphate buffered solution at pH 7.4 incubated for 1 hr under shaking condition by HPLC analysis; type: physicochemical
Cholinesterase [17] = biological target: T2, Cholinesterase
Description: Binding affinity to equine BChE in phosphate buffer at pH 8 assessed as equilibrium dissociation constant by SPR analysis

[18] = biological target: Cholinesterase (Equus caballus) (UniProt P81908); experiment: Mixed-type inhibition of equine serum BChE using varying concentrations of butyrylthiocholine iodide as substrate assessed as change in Km and Vmax at 0.05 to 0.5 uM by Lineweaver-Burk plot analysis; details: dose 0.05-0.5 µM
Sequence of Cholinesterase (Equus caballus) (P81908 whole entry): as the sequence (P81908 whole entry) above

Cholinesterase [19] = biological target: T2, Cholinesterase; experiment: Mixed-type inhibition of equine serum BChE using varying concentrations of butyrylthiocholine iodide as substrate assessed as inhibition constant by Lineweaver-Burk plot analysis
SH-SY5Y [20] = experiment: Cytoprotective activity against H2O2-induced oxidative stress in human SH-SY5Y cells assessed as increase in cell viability at 20 uM incubated for 24 hrs by MTT assay; type: functional, cell-based
SH-SY5Y [21] = experiment: Cytoprotective activity against H2O2-induced oxidative stress in human SH-SY5Y cells assessed as increase in cell viability at 100 uM incubated for 24 hrs by MTT assay; type: functional, cell-based
[22] = biological target: Cholinesterase (Equus caballus) (UniProt P81908); experiment: Inhibition of equine serum BuChE using butyrylthiocholine iodide as substrate at 20 uM preincubated for 20 mins followed by substrate addition and measured after 10 mins by DTNB based Ellman's method relative to control; details: time 30.0 min

## CC(C)NCCCn1c2c(c3ccccc31)C(=O)NCCC2
[1]
  inhibition: 50%
[2]
  inhibition: < 40%
Cholinesterase [3]
  inhibition: < 40%

## CN1CCN(CCCCCCCn2c3c(c4ccccc42)C(=O)NCCC3)CC1
Acetylcholinesterase
  IC50: 15000 nM
Cholinesterase [4]
  IC50: 10000 nM

## O=C1NCCCc2c1c1ccccc1n2CCCCCCCN1CCN(c2ccccc2F)CC1
Acetylcholinesterase
  IC50: 4940 nM
Cholinesterase [4]
  IC50: 906 nM

## O=C1NCCCc2c1c1ccccc1n2CCc1ccccc1
[1]
  inhibition: < 40%
Albumin
  Kd: 850 nM
Serum albumin [5]
  koff: 0.017 s⁻¹
Serum albumin [6]
  residence time: 1 min

## O=C1NCCCc2c1c1ccccc1n2CCN1CCN(CCc2ccccc2)CC1
Cholinesterase [4]
  IC50: 5790 nM
[7]
  inhibition: 8%
[8]
  inhibition: 55%

## O=C1NCCCc2c1c1ccccc1n2CCN1CCN(Cc2ccccc2)CC1
Acetylcholinesterase
  IC50: 6570 nM
Cholinesterase [4]
  IC50: 6590 nM
[8]
  inhibition: 13%

## O=C1NCCCc2c1c1ccccc1n2CCCCCCCN1CCN(c2ccc(F)cc2)CC1
Cholinesterase [4]
  IC50: 10000 nM
[7]
  inhibition: 10%

## O=C1NCCCc2c1c1ccccc1n2CCCCCCCN1CCN(Cc2ccncc2)CC1
Acetylcholinesterase
  IC50: 7060 nM
Cholinesterase [4]
  IC50: 1860 nM

## O=C1NCCCc2c1c1ccccc1n2CCCCCN1CCN(CCc2ccccc2)CC1
Cholinesterase [4]
  IC50: 163 nM
[7]
  inhibition: 39%
Cholinesterase [9]
  IC50: 190 nM
[10]
  inhibition: 20%
[8]
  inhibition: 14%
SH-SY5Y [11]
  EC50: ~1500 nM
SH-SY5Y [11]; dose 1-20 µM
  Activity: Dose-Dependent Effect
[12]
  IC50 at 24 h: 88000 nM
SH-SY5Y [13]
  Activity: Active
SH-SY5Y [14]
  Activity: inactive
Equine serum BuChE
  selectivity ratio: 500
[15]
  Activity: < 10%
Albumin
  Kd: 6700 nM
Serum albumin [5]
  koff: 0.092 s⁻¹
Serum albumin [6]
  residence time: 0.183 min
[16]
  solubility at 1 h: 169 µg/mL (≈ 368 µM)
Cholinesterase [17]
  Kd: 148 nM

## O=C1NCCCc2c1c1ccccc1n2CCCCCN1CCN(c2ccccc2F)CC1
Cholinesterase [4]
  IC50: 1000 nM
[7]
  inhibition: 35%

## O=C1NCCCc2c1c1ccccc1n2CCCCCCCN1CCN(c2ccccc2)CC1
Cholinesterase [4]
  IC50: 765 nM
[7]
  inhibition: 17%
Albumin
  Kd: 1640 nM
Serum albumin [5]
  koff: 0.069 s⁻¹
Serum albumin [6]
  residence time: 0.25 min
Cholinesterase [17]
  Kd: 759 nM

## O=C1NCCCc2c1c1ccccc1n2CCCCCN1CCN(c2ccc(F)cc2)CC1
Cholinesterase [4]
  IC50: 1780 nM
[7]
  inhibition: 28%

## O=C1NCCCc2c1c1ccccc1n2CCCCCN1CCN(c2ccccn2)CC1
Cholinesterase [4]
  IC50: 717 nM
[7]
  inhibition: 13%

## O=C1NCCCc2c1c1ccccc1n2CCCCCCCN1CCN(Cc2cccnc2)CC1
Cholinesterase [4]
  IC50: 466 nM
[7]
  inhibition: 40%

## O=C1NCCCc2c1c1ccccc1n2CCCCCCCN1CCN(CCc2ccccc2)CC1
Acetylcholinesterase
  IC50: 5900 nM
Cholinesterase [4]
  IC50: 65 nM
Cholinesterase [9]
  IC50: 72 nM
[10]
  inhibition: 39%
[18]
  inhibition: Active
Cholinesterase [19]
  Ki: 27 nM
[8]
  inhibition: 62%
[12]
  IC50 at 24 h: 60000 nM
SH-SY5Y [13]
  Activity: Active
SH-SY5Y [14]
  Activity: inactive
Equine serum BuChE
  selectivity ratio: 800
SH-SY5Y [20]
  Activity: inactive
[15]
  Activity: < 10%
Albumin
  Kd: 3530 nM
Serum albumin [5]
  koff: 0.151 s⁻¹
Serum albumin [6]
  residence time: 0.1 min
[16]
  solubility at 1 h: 6.1 µg/mL (≈ 12.5 µM)
Cholinesterase [17]
  Kd: 62 nM

## O=C1NCCCc2c1c1ccccc1n2CCCCN1CCN(CCc2ccccc2)CC1
Cholinesterase [4]
  IC50: 528 nM
[7]
  inhibition: 36%
[8]
  inhibition: 21%

## O=C1NCCCc2c1c1ccccc1n2CCCCCCCN1CCN(c2ccccn2)CC1
Acetylcholinesterase
  IC50: 9100 nM
Cholinesterase [4]
  IC50: 2100 nM

## O=C1NCCCc2c1c1ccccc1n2CCCCN1CCN(Cc2ccccc2)CC1
Acetylcholinesterase
  IC50: 1480 nM
Cholinesterase [4]
  IC50: 2640 nM

## O=C1NCCCc2c1c1ccccc1n2CCCCCN1CCN(Cc2ccncc2)CC1
Cholinesterase [4]
  IC50: 1920 nM
[7]
  inhibition: 2%

## O=c1c(O)c(-c2ccc(O)c(O)c2)oc2cc(O)cc(O)c12
SH-SY5Y [21]
  Activity: Active

## O=C1NCCCc2c1c1ccccc1n2CCCCCN1CCN(c2ccccc2)CC1
Cholinesterase [4]
  IC50: 5520 nM
[7]
  inhibition: 31%

## O=C1NCCCc2c1c1ccccc1n2CCCCCN1CCN(Cc2ccccc2)CC1
Acetylcholinesterase
  IC50: 1830 nM
Cholinesterase [4]
  IC50: 430 nM
[8]
  inhibition: 28%

## CN1CCN(CCCCCn2c3c(c4ccccc42)C(=O)NCCC3)CC1
[7]
  inhibition: 20%
[22]
  inhibition: 20%

## O=C1NCCCc2c1c1ccccc1n2CCCCCN1CCN(Cc2cccnc2)CC1
Cholinesterase [4]
  IC50: 4920 nM
[7]
  inhibition: 37%

## O=C1NCCCc2c1c1ccccc1n2CCCCCCCN1CCN(Cc2ccccc2)CC1
Acetylcholinesterase
  IC50: 402 nM
Cholinesterase [4]
  IC50: 396 nM
